Source: ChEMBL document CHEMBL1201862, “PubChem BioAssay data set” (2004)
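Following 48 hours of exposure in 96-well plates, responses at five concentrations were used to interpolate endpoints linearly. At the GI50, growth is halved.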 Active and inactive are the calls of the source. Rule as the data show it: active = GI50 up to about 1.1 µM and inactive = higher.

Legend:
Assay in all cases: DTP human tumour cell line panel, 48 h
[1] = system: OVCAR-5
[2] = system: HCT-116
[3] = system: SK-MEL-5
[4] = system: SW-620
[5] = system: NCI-H226
[6] = system: UO-31
[7] = system: LOX IMVI
[8] = system: KM12
[9] = system: 786-0
[10] = system: OVCAR-8
[11] = system: MDA-N
[12] = system: NCI-H23
[13] = system: SNB-19
[14] = system: A498
[15] = system: A549
[16] = system: CAKI-1
[17] = system: HL-60
[18] = system: CCRF-CEM
[19] = system: UACC-257

Measured: GI50

COc1ccc2nc(-c3ccccc3)cc(OCC(=O)O)c2c1
inactive: [1] > 100 µM | [2] > 100 µM | [3] > 100 µM | [4] > 100 µM | [5] > 100 µM | [6] 25.4 µM | [7] > 100 µM | [8] > 100 µM | [9] > 100 µM | [10] > 100 µM | [11] > 100 µM | [12] > 100 µM | [13] > 100 µM | [14] > 100 µM | [15] > 100 µM | [16] > 100 µM | [17] > 100 µM | [18] > 100 µM | [19] > 100 µM

COc1cc(C2c3cc4c(cc3C(O)C3CCC(=O)N23)OCO4)cc(OC)c1OC (stereo not given)
inactive: [1] 43.2 µM | [2] 24.3 µM | [3] 10.9 µM | [4] 36.6 µM | [5] 37.5 µM | [6] 15.7 µM | [7] 52.4 µM | [8] 12.6 µM | [9] 52.5 µM | [10] 37.2 µM | [11] 5.56 µM | [12] 53 µM | [13] 29.9 µM | [14] 42.6 µM | [15] 39.3 µM | [16] 28.2 µM | [17] 17.1 µM | [18] 29.9 µM | [19] > 100 µM

C#CCN(Cc1ccc2[nH]c(N)nc(=O)c2c1)c1ccc(C(=O)NC(CCC(=O)O)C(=O)O)cc1 (stereo not given)
inactive: [1] > 100 µM | [2] > 100 µM | [3] > 100 µM | [4] > 100 µM | [5] > 100 µM | [6] 5.66 µM | [7] 3.24 µM | [8] > 100 µM | [9] 6.38 µM | [10] 4.4 µM | [11] > 100 µM | [12] > 100 µM | [13] 40.4 µM | [14] 15.7 µM | [15] 53.5 µM | [16] 5.3 µM | [17] > 100 µM | [18] 6.5 µM | [19] > 100 µM

Cc1ncc([N+](=O)[O-])n1CCNC(=O)Cn1ccnc1[N+](=O)[O-]
inactive: [1] > 100 µM | [2] > 100 µM | [3] > 100 µM | [4] > 100 µM | [5] > 100 µM | [6] > 100 µM | [8] > 100 µM | [9] > 100 µM | [10] > 100 µM | [11] > 100 µM | [12] > 100 µM | [13] > 100 µM | [14] > 100 µM | [15] > 100 µM | [16] > 100 µM | [17] > 100 µM | [18] > 100 µM | [19] > 100 µM
